Each structure is given as a SMILES string.

A short description of the data set: gradient 5% acetonitrile 3 min, to 50% in 2 min, to 85% in 15 min, held 3 min, 100 µL/min. The following applies: column: Zorbax Extend-C18 2.1 x 50 mm; eluents: water / acetonitrile, 0.1% formic acid. The procedure, abridged:
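Standards, all pure, were combined into mixtures of ~100 molecules and run at 100 μL/min on a Zorbax Extend-C18 column (2.1 × 50 mm, 1.8 μm) with water and acetonitrile, each containing 0.1% formic acid. A coupled quadrupole time-of-flight mass spectrometer operated in positive and negative ionization mode. Retention time values come from computationally picked adduct peaks, each inspected manually.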
Regarding `COc1ccc(F)cc1S(=O)(=O)Nc1ccc(CC(=O)NCC(F)(F)F)cc1`, the RP-LC retention time stood at 869 s. The figure for `N#Cc1c(N)nc(N)nc1Nc1ccc(Br)cc1` is 777 s; for `COc1ccc(N2CC(CNC(=O)Nc3c(F)cccc3F)CC2=O)cc1` (configuration not stated) it is 658 s. The figure for `O=C(Nc1ccc(N2CCOCC2)cc1)C1CN(S(=O)(=O)C2CC2)CC12CCCCC2` (configuration not stated) is 812 s; for `CN(C)c1ccc(C(=O)NCc2nn(C)c3ccccc23)cc1` it is 778 s.

Compound `COc1cccc(-n2c(=O)c(C(=O)Nc3ccc(F)c(Cl)c3)c(O)c3cccnc32)c1` registered an RP-LC retention time of 1250 s.

In turn, `COc1cc(NC(=O)Cn2nc(C(=O)N3CCCC3)c3ccccc32)cc(OC)c1` had an RP-LC retention time of 641 s. The value for `CC(C)c1nnc2n1CCN(C(=O)COc1cccc(Cl)c1)C2` was 667 s; that for `CCC(C)n1c(=O)c2ccccc2n(Cc2nc(-c3ccc(SC)cc3)no2)c1=O` (configuration not stated) was 1260 s.

As for `CC1=C(c2ccc(C)c(C)c2)S(=O)(=O)N=C1N1CCC(NC(=O)CCC(C)C)CC1`, the RP-LC retention time came out at 962 s.

In the case of `Cc1ccnc(N2CCCC(C(=O)NCCCN3CCCCCC3)C2)n1` (configuration not stated), the RP-LC retention time was found to be 586 s. The value for `COc1ccc(OCc2nc(-c3ccc4c(c3)oc(=O)n4C(C)C)no2)cc1` was 1110 s. The figure for `Cc1ccc(NC(=O)Cn2cc3c(n2)CCC(C)C3)c(C)c1` (configuration not stated) is 987 s; for `COc1cc(Nc2cc(C(=O)N3CCC(C)CC3)nc3ccc(C)cc23)cc(OC)c1OC` it is 703 s. The figure for `Cc1ccc(C(=O)Nc2nc(-c3ccc4c(c3)NC(=O)C(C)O4)cs2)cc1` (configuration not stated) is 918 s. The compound `CC(=O)OCc1cc(=O)n(C)c2c3c4c(cc12)c(C)cc(=O)n4CO3` returned an RP-LC retention time of 669 s. The figure for `O=C(CCn1cnc2c(cnn2-c2ccccc2)c1=O)N1CCN(C(=O)c2ccco2)CC1` is 653 s; for `Cc1oc(C2CCN(S(=O)(=O)CCc3ccccc3)CC2)nc1C(=O)N1CCCC1` it is 917 s; for `Cc1ccc(C)c(NC(=O)N2CCC(n3c(C)nc4cccnc43)CC2)c1` it is 638 s. For the compound `CCOc1ccc(S(=O)(=O)NC2CCN(c3ccc(=O)n(CC4CC4)n3)C2)cc1` (configuration not stated), the RP-LC retention time stood at 834 s.

For `Cn1ccc2cc(S(=O)(=O)N3CCC(C(=O)NCC4CCCO4)CC3)ccc21` (configuration not stated), the RP-LC retention time came to 739 s. The value for `CSc1nnc(-c2nn(C)c3c2CN(C(=O)c2ccc(Br)cc2)CC3)n1C` was 753 s; that for `Cc1cc(C(=O)Nc2nc(-c3ccc(C)c(C)c3)c(C)s2)no1` was 1120 s; that for `Cc1noc([C@@H]2CC(F)(F)CN2C(=O)c2nccn2C)n1` was 701 s. The figure for `Cc1cc2c(cc1S(=O)(=O)N1CCCC1C(=O)Nc1ccc(F)cc1Cl)OC(C)C(=O)N2` (configuration not stated) is 849 s; for `COC(=O)c1ccc(C(=O)NCCN2CCN(C(=O)OC(C)(C)C)CC2)cc1` it is 580 s; for `Cc1cccc(N2CCN(C(=O)c3cn4ccc(C)cc4n3)CC2)c1` it is 668 s. The figure for `COc1ccc(-c2nn3c(-c4cc(C(C)C)[nH]n4)nnc3s2)c(OC)c1` is 915 s; for `CC(C)NC(=O)Cn1nc2c3cc(-c4ccc(Cl)cc4)nn3ccn2c1=O` it is 823 s. As for `COc1ccccc1-c1nc(COc2cc(C)c3c(C)nn(C)c3n2)c(C)o1`, the RP-LC retention time worked out at 1030 s. Compound `COc1ccc(C2CC(=O)N(c3ccc(F)cc3)C(=O)C2)cc1OC` had an RP-LC retention time of 801 s. The figure for `COc1cccc(-c2noc(CCn3nc(-c4ccc(Cl)cc4)ccc3=O)n2)c1OC` is 1010 s.
